Legend:
[1] = tested on: p31fuj; experiment: In vitro ADC activity, AML cell lines, CellTiter-Glo (Example 20); format: cell-based; conditions: 5 days
[2] = tested on: hel; experiment: as above; format: cell-based; conditions: 5 days
[3] = tested on: 5979hx; experiment: as above; format: cell-based; conditions: 5 days
[4] = tested on: 5340hx; experiment: as above; format: cell-based; conditions: 5 days
[5] = tested on: OPM-2; experiment: CellTiter-Glo proliferation assay (Example 6); format: cell-based; conditions: CD48 Mcl-1 ADCs and payload P1, 5 days
Protocol: (§1) Mcl-1 ADCs were tested on nine endogenous cancer cell lines and one isogenic cell line engineered to overexpress a target of interest. Six targets were assessed: HER2, BCMA, CD38, CD48, CD79b, and CD33.
(§2) Cell lines • HER2: HCC1954 (ATCC No. CRL-2338 cultured in RPMI-1640+10% FBS) and HCC2218 (ATCC No. CRL-2343 cultured in RPMI-1640+10% FBS). • BCMA: NCI-H929 (ATCC No. CRL-9068 cultured in RPMI-1640+10% FBS+0.05 mM 2-mercaptoethanol). • CD38: A4-Fuk (JCRB No. JCRB0097 cultured in RPMI-1640+10% FBS) and KMS-21 BM (JCRB No. JCRB1185 cultured in RPMI-1640+10% FBS). • CD48: NCI-H929 (ATCC No. CRL-9068 cultured in RPMI-1640+10% FBS+0.05 mM 2-mercaptoethanol), OPM-2 (DSMZ No. ACC-50 cultured in RPMI-1640+10% FBS) and AMO1 (DSMZ No. ACC-538 cultured in RPMI-1640+20% FBS). • CD79b: RS4;11 (ATCC No. CRL-1873 cultured in RPMI-1640+10% FBS). • CD33: MOLM-13 (DSMZ No. ACC-554 cultured in RPMI-1640+10% FBS) and an isogenic cell line, AMO1-CD33 clone D2. AMO1 cell line was transfected to generate a stable AMO1 cell line expressing the exogenous protein of interest, CD33, AMO1-CD33 clone D2 (cultured in RPMI-1640+20% FBS).
(§3) The ability of Mcl-1 ADCs to inhibit cell proliferation and survival was assessed using a Promega CellTiter-Glo® proliferation assay. Cell lines were cultured in media optimal for their growth at 5% CO2, 37° C. in a tissue culture incubator. Prior to seeding for the proliferation assay, the cells were split at least 2 days before the assay to ensure optimal growth density. On the day of seeding, adherent cells were lifted off tissue culture flasks using 0.25% trypsin. Cell viability and cell density were determined using a cell counter (Vi-Cell XR Cell Viability Analyzer, Beckman Coulter). […] Cells were seeded at a density of 1,000 cells per well in 45 μl of standard growth media. Plates were incubated at 5% CO2, 37° C. overnight in a tissue culture incubator. The next day, free Mcl-1 payload (P1), targeting Mcl-1 ADCs, and non-targeting isotype ADCs were prepared at 10× in standard growth media. The prepared drug treatments were then added to the cells resulting in final concentrations of 0.0005-500 nM and a final volume of 50 μl per well. Each drug concentration was tested in quadruplets. Plates were incubated at 5% CO2, 37° C. for 5 days in a tissue culture incubator, after which cell viability was assessed through the addition of 25 μl of CellTiter Glo® (Promega, Cat. No. G7573), a reagent which lyses cells and measures total adenosine triphosphate (ATP) content. Plates were incubated at room temperature for 10 minutes to stabilize luminescent signals prior to reading using a luminescence reader (EnVision Multilabel Plate Reader, PerkinElmer). To evaluate the effect of the drug treatments, luminescent counts from wells containing untreated cells (100% viability) were used to normalize treated samples. A variable slope model was applied to fit a nonlinear regression curve to the data in GraphPad PRISM version 7.02 software. IC50 and Amax values were extrapolated from the resultant curves.

[6] = tested on: MOLM-13; experiment: CellTiter-Glo proliferation assay (Example 6); format: cell-based; conditions: CD33 Mcl-1 ADCs and payload P1, 5 days
Protocol: as §1, §2, §3

[7] = tested on: RS4;11; experiment: CellTiter-Glo proliferation assay (Example 6); format: cell-based; conditions: CD79b Mcl-1 ADCs and payload P1, 5 days
Protocol: as §1, §2, §3

[8] = tested on: HCC1954; experiment: CellTiter-Glo proliferation assay (Example 6); format: cell-based; conditions: HER2 Mcl-1 ADCs and payload P1, 5 days
Protocol: as §1, §2, §3

[9] = tested on: NCI-H929; experiment: CellTiter-Glo proliferation assay (Example 6); format: cell-based; conditions: for Amax H929: in %; for IC50: Homo sapiens, NCI-H929, 120 h
Protocol: as §1, §2, §3

[10] = tested on: HCC2218; experiment: CellTiter-Glo proliferation assay (Example 6); format: cell-based; conditions: HER2 Mcl-1 ADCs and payload P1, 5 days
Protocol: as §1, §2, §3

[11] = tested on: 21435hx; experiment: In vitro ADC activity, AML cell lines, CellTiter-Glo (Example 20); format: cell-based; conditions: 5 days
[12] = tested on: pl21; experiment: as above; format: cell-based; conditions: pl21, 5 days
[13] = tested on: AMO1-CD33 clone D2; experiment: CellTiter-Glo proliferation assay (Example 6); format: cell-based, human; conditions: CD33 Mcl-1 ADCs and payload P1, 5 days
Protocol: as §1, §2
as §3, with “To evaluate the effect of the drug treatments, luminescent counts from wells containing untreated cells (100% viability) were used to normalize treated samples. A variable slope model was applied to fit a nonlinear regression curve to the data in GraphPad PRISM version 7.02 software. IC50 and Amax values were extrapolated from the resultant curves.” left out

[14] = tested on: AMO1; experiment: CellTiter-Glo proliferation assay (Example 6); format: cell-based, human; conditions: CD48 Mcl-1 ADCs and payload P1, 5 days
Protocol: as §1, §2
as §3, with “To evaluate the effect of the drug treatments, luminescent counts from wells containing untreated cells (100% viability) were used to normalize treated samples. A variable slope model was applied to fit a nonlinear regression curve to the data in GraphPad PRISM version 7.02 software. IC50 and Amax values were extrapolated from the resultant curves.” left out

[15] = tested on: ociaml3; experiment: In vitro ADC activity, AML cell lines, CellTiter-Glo (Example 20); format: cell-based; conditions: ociaml3, 5 days
[16] = tested on: KMS-21 BM; experiment: CellTiter-Glo proliferation assay (Example 6); format: cell-based; set-up: key: **: tested but curve did not converge; conditions: CD38 Mcl-1 ADCs and payload P1, 5 days
Protocol: as §1, §2
as §3, with “To evaluate the effect of the drug treatments, luminescent counts from wells containing untreated cells (100% viability) were used to normalize treated samples. A variable slope model was applied to fit a nonlinear regression curve to the data in GraphPad PRISM version 7.02 software. IC50 and Amax values were extrapolated from the resultant curves.” left out

[17] = tested on: A4-Fuk; experiment: CellTiter-Glo proliferation assay (Example 6); format: cell-based; set-up: key: **: tested but curve did not converge; conditions: CD38 Mcl-1 ADCs and payload P1, 5 days
Protocol: as §1, §2
as §3, with “To evaluate the effect of the drug treatments, luminescent counts from wells containing untreated cells (100% viability) were used to normalize treated samples. A variable slope model was applied to fit a nonlinear regression curve to the data in GraphPad PRISM version 7.02 software. IC50 and Amax values were extrapolated from the resultant curves.” left out

[18] = BCMA Mcl-1 ADCs (Table 29) and payload P1, 5 days
[19] = CD48 Mcl-1 ADCs (Table 25) and payload P1, 5 days

With `COc1ccccc1-c1nccc(COc2ccccc2C[C@@H](Oc2ncnc3sc(-c4ccc(F)cc4)c(-c4ccc(OCCN5CCN(C)CC5)c(Cl)c4C)c23)C(=O)O)n1` [P1, (2R)-2-[5-[3-chloro-2-methyl-4-[2-(4-methylpiperazin-1-yl)ethoxy]phenyl]-6-(4-fluorophenyl)thieno[2,3-d]pyrimidin-4-yl]oxy-3-[2-[[2-(2-methoxyphenyl)pyrimidin-4-yl]methoxy]phenyl]propanoic acid] the Amax ([1]; in % (unit assumed)) was −73, the GI50 ([1]; Homo sapiens, P31-FUJ, 120 h) was 116 nM and the Amax ([2]; unit assumed) was 4%. The GI50 ([2]; Homo sapiens, 120 h) was 6090 nM, the GI50 ([3]; 120 h) was 1 nM and the Amax [3] was −83. For the same molecule, the GI50 ([4]; 120 h) was 1 nM, the Amax ([4]; in % (unit assumed)) was −92 and the “Amax OPM2” value [5] was 22.97. For the same molecule, the IC50 ([5]; Homo sapiens, OPM-2, 120 h, read-out: IC50 (nM) OPM2) was 0.136 nM, the “Amax MOLM13” value [6] was 128.80 and the IC50 ([6]; Homo sapiens, MOLM-13, 120 h, read-out: IC50 (nM) MOLM13) was 2.44 nM. For the same molecule, the “Amax RS; 411” value [7] was 132.40, the IC50 ([7]; Homo sapiens, RS4-11, 120 h, read-out: IC50 (nM) RS, 411) was 0.299 nM and the Amax HCC1954 ([8]; unit assumed) was 64.8%. The IC50 ([8]; Homo sapiens, HCC1954, 120 h) was 63.5 nM, the “Amax H929” value [9, 18] was 89.16 and the “Amax H929” value [9, 19] was 25.79. The IC50 [9, 18] was 5.61 nM, the IC50 [9, 19] was 0.394 nM and the “Amax HCC2218” value ([10]; in % (unit assumed)) was 100.40. The IC50 ([10]; Homo sapiens, HCC2218, 120 h) was 14.1 nM, the GI50 ([11]; 120 h) was 12 nM and the Amax ([11]; in % (unit assumed)) was −91. For the same molecule, the GI50 ([12]; PL-21, 120 h) was 350 nM, the Amax ([12]; in % (unit assumed)) was −55 and the “Amax AMO1-CD33” value [13] was 103.00. For the same molecule, the IC50 ([13]; Homo sapiens, 120 h) was 1.53 nM, the “Amax AMO1” value [14] was 19.97 and the IC50 ([14]; Homo sapiens, AMO1, 120 h) was 0.038 nM. The GI50 ([15]; Homo sapiens, OCI-AML-3, 120 h) was 138 nM, the Amax ([15]; unit assumed) was 1% and the “Amax KMS21 BM” value [16] was “**”. The “IC50 (nM) KMS21 BM” value [16] was “**”, the “Amax A4FUK” value [17] was “**” and the “IC50 (nM) A4FUK” value [17] was “**”.

From US20230092679A1, “MCL-1 INHIBITOR ANTIBODY-DRUG CONJUGATES AND METHODS OF USE” (NOVARTIS AG, priority 2019, published 2023)
